According to ChEMBL document CHEMBL5029190, “A Series of Pyrazole Analogs Binding to KRASG12C as Potential Cancer Treatment” (ACS Med Chem Lett, 2022):

Molecular target: GTPase KRas (Homo sapiens, UniProt P01116, G12C)
Experiment: Inhibition of human KRAS G12C mutant incubated for 2 hrs by scintillation counter based covalent competition assay

Row | SMILES | IC50 [µM]
1 | C=CC(=O)N1CC2(CC(n3nc(-c4ccc5c(c4)CCN5C(=O)CN4CC[C@H](F)C4)c(-c4c(Cl)c(C)cc5[nH]ncc45)c3C)C2)C1 (stereo in doubt; 76a) | 0.015
2 | C=CC(=O)N1CC2(CC(n3nc(-c4ccc5c(c4)CCN5C(=O)CN4CC[C@H](F)C4)c(-c4c(Cl)c(C)cc5[nH]ncc45)c3C)C2)C1 (stereo in doubt; 76b) | 13.3
